The values that follow come from ChEMBL document CHEMBL5252667, “Discovery and Optimization of a Novel Macrocyclic Amidinourea Series Active as Acidic Mammalian Chitinase Inhibitors” (ACS Med Chem Lett, 2023).

Each structure is given as a SMILES string. In brackets after ≈: the same amount, converted by molar mass. A value given as a limit tells only on which side of the number the result lay.

Series [1] is described as follows: Apparent permeability of compound in phosphate buffer by PAMPA assay. Format: ADME. (PAMPA measures passive passage across an artificial lipid membrane.)
The nature of series [2]: Aqueous solubility of the compound by HPLC-UV/MS analysis. Format: physicochemical. Particulars: water (aqueous).
The nature of series [3]: Metabolic stability in human liver microsomes assessed as parent compound remaining in the presence of NADPH generating system by HPLC-UVMS analysis. Format: ADME, Microsome.
The next series concerns Candida. Briefly: Antifungal activity against Candida spp. The format is functional.
Series [4] deals with T1, Chitotriosidase-1 (Homo sapiens, UniProt Q13231). Briefly: Inhibition of human CHIT1 using 4-methylumbelliferyl-beta-D-N,N',N''-triacetylchitotriose as substrate assessed as substrate hydrolysis by measuring inhibition constant preincubated with compound for 20 mins and measured immediately after substrate addition by fluorescence based assay relative to control.
Target sequence in this assay (Q13231 whole entry): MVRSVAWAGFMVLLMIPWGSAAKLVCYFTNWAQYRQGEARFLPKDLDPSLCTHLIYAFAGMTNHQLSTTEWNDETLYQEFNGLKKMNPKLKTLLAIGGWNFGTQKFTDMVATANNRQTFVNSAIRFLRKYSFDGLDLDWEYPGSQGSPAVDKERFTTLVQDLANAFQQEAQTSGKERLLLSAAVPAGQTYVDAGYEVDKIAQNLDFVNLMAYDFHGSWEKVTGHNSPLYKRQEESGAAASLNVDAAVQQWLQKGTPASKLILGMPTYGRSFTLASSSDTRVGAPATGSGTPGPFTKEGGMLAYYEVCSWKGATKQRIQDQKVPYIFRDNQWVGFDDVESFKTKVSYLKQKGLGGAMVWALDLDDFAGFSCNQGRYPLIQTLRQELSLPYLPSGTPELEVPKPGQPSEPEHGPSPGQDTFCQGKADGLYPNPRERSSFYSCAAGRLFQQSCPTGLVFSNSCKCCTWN
Series [5] addresses Acidic mammalian chitinase (Homo sapiens, UniProt Q9BZP6). Briefly: Inhibition of human AMCase using 4-methylumbelliferyl-beta-D-N,N',N''-triacetylchitotriose as substrate assessed as substrate hydrolysis by measuring inhibition constant preincubated with compound for 20 mins and measured immediately after substrate addition by fluorescence based assay.
In series [6] the target is T1, Chitotriosidase-1. Briefly: Inhibition of human CHIT1 using 4-methylumbelliferyl-beta-D-N,N',N''-triacetylchitotriose as substrate assessed as substrate hydrolysis at 10 uM preincubated with compound for 20 mins and measured immediately after substrate addition by fluorescence based assay relative to control.
Target sequence in this assay (Q13231 22-466 limits assumed): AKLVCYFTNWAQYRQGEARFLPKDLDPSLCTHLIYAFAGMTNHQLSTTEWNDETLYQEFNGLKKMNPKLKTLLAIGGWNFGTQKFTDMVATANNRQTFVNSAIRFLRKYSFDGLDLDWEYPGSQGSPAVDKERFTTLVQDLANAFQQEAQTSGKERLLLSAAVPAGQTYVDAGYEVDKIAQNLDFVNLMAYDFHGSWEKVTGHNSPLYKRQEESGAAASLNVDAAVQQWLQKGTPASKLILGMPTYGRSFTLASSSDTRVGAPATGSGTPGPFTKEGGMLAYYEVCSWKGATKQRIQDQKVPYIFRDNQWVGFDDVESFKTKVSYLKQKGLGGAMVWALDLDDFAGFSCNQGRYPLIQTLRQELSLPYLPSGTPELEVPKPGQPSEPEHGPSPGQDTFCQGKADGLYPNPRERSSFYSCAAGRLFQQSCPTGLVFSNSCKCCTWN

Chain of Acidic mammalian chitinase (Q9BZP6 whole entry): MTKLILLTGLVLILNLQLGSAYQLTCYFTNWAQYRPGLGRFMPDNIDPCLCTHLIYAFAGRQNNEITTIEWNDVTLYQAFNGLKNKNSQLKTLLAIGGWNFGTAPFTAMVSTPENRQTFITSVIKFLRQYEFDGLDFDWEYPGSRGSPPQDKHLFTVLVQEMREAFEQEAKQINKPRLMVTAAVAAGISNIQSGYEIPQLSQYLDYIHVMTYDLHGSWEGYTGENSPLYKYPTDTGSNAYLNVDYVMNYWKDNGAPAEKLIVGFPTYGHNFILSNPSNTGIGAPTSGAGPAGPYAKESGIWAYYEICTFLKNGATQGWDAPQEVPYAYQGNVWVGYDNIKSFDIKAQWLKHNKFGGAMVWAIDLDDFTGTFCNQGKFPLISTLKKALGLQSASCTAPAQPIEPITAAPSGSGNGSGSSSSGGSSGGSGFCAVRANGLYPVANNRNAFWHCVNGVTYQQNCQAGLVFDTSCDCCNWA

Broadly, the Papp is a coefficient for how fast a substance crosses the barrier. A word on the solubility: it is how much of the substance goes into solution per volume. A high value points to much dissolved substance. For `CNC(=O)NC(=N)NCCCCCCCCN1CCCc2ccccc2COc2ccc(OC)cc2CNC(=N)NC1=O`, the Papp in series [1] was less than 0.5 ×10⁻⁶ cm/s. In addition, the concentration in solution in series [2] (solubility) came to 3080 µg/mL (≈ 5.17 mM). Moreover, the Stability in series [3] is recorded as 98.7%.

For the molecule `CNC(=O)NC(=N)NCCCCCCCCN1CCCc2ccccc2COc2ccccc2CNC(=N)NC1=O`, in series [1], the Papp was less than 0.5 ×10⁻⁶ cm/s. Moreover, in series [2], the solubility was 2010 µg/mL (≈ 3.57 mM). The Stability in series [3] was 76.2%.

In the case of `CNC(=O)NC(=N)NCCCCCCCCN1CCCc2cc(Cl)ccc2COc2ccccc2CNC(=N)NC1=O`, the Papp in series [1] is less than 0.5 ×10⁻⁶ cm/s. In addition, in series [2], the solubility is 23100 µg/mL (≈ 38.6 mM). Further, the Stability in series [3] is listed as 91.5%. As usually defined, the MIC is the lowest concentration that inhibits growth of the organism. Regarding `C/C=C/CNC(=N)NCCCCCCCCN1CCCCCCOc2ccccc2CNC(=N)NC1=O`, in the series with Candida, the MIC was 1 µg/mL (≈ 0.00195 mM). Broadly, the Ki is the dissociation constant of the complex between target and ligand, obtained from inhibition or displacement. Regarding `CNC(=S)NC(=N)NCCCCCCCCN1CCCCCCOc2ccccc2CNC(=N)NC1=O`, the Ki at Chitotriosidase-1 [4] is more than 50 µM. On to `C/C=C/CNC(=N)NCCCCCCCCN1CCCCCCCCNC(=N)NC1=O`, for which 1 µg/mL (≈ 0.0023 mM) was the least that counted as inhibitory against Candida (MIC). On to `CNC(=O)NC(=N)NCCCCCCCCN1CCCCCCCCNC(=N)NC1=O`, for which the Ki on Chitotriosidase-1 [4] was more than 50 µM.

Broadly, the inhibition is the change of the read-out against control, counted positive when it falls. Consider `Cn1cnc2c1c(=O)n(CCCn1c(=O)c3nc[nH]c3n(C)c1=O)c(=O)n2C`, for which the Ki in series [5] was found to be 0.26 µM; on Chitotriosidase-1 [4] it was 0.0014 µM. Also, the inhibition on Chitotriosidase-1 [6] was 98%. For the molecule `CNC(=O)NC(=N)NCCCCCCCCN1CCCc2ccccc2COc2cc(C)ccc2CNC(=N)NC1=O`, the Ki at Chitotriosidase-1 [4] was more than 50 µM.

As to `C/C=C/CNC(=N)NCCCCCCCCN1CCCc2ccccc2COc2ccccc2CNC(=N)NC1=O`, the MIC with Candida was found to be 1 µg/mL (≈ 0.00178 mM). On to `CNC(=O)NC(=N)NCCCCCCCCN1CCCc2ccc(F)cc2COc2ccccc2CNC(=N)NC1=O`, for which, in series [1], the Papp was less than 0.5 ×10⁻⁶ cm/s. The amount in solution in series [2] (solubility) came to 2850 µg/mL (≈ 4.9 mM). Moreover, the Stability in series [3] is 98.5%. `CNC(=O)NC(=N)NCCCCCCCCN1CCCCCOc2ccccc2CNC(=N)NC1=O`: the Papp in series [1] is less than 0.5 ×10⁻⁶ cm/s. In addition, in series [2], the concentration in solution (solubility) came to 1810 µg/mL (≈ 3.6 mM). Besides, the Stability in series [3] is 80.9%. For the molecule `CNC(=O)NC(=N)NCCCCCCCCN1CCCc2ccc(OC(F)(F)F)cc2COc2ccccc2CNC(=N)NC1=O`, the Ki in series [5] is more than 50 µM. `CNC(=O)NC(=N)NCCCCCCCCN1CCCc2ccccc2COc2cc(Cl)ccc2CNC(=N)NC1=O`: the Ki at Chitotriosidase-1 [4] was more than 50 µM.
